Test results published in BindingDB's records for PubMed 25825497 (Eli Lilly).

Legend:
[1] = molecular target: Serine/threonine-protein kinase PRP4 homolog (PRPF4B) (Homo sapiens) (UniProt Q13523); assay: Inhibition of human PRP4 by discoverX kinome scan assay
[2] = molecular target: Mitogen-activated protein kinase kinase kinase 12 (DLK/MAP3K12) (Homo sapiens) (UniProt Q12852); assay: Inhibition of human DLK by discoverX kinome scan assay
[3] = molecular target: Mitogen-activated protein kinase kinase kinase 7 (TAK1/MAP3K7) (Homo sapiens) (UniProt O43318); assay: Inhibition of human TAK1 by discoverX kinome scan assay
[4] = molecular target: Serine/threonine-protein kinase OSR1 (OXSR1) (Homo sapiens) (UniProt O95747); assay: Inhibition of human OSR1 by discoverX kinome scan assay
Serine/threonine-protein kinase OSR1 (OXSR1) (Homo sapiens), sequence (O95747 whole entry, looked up): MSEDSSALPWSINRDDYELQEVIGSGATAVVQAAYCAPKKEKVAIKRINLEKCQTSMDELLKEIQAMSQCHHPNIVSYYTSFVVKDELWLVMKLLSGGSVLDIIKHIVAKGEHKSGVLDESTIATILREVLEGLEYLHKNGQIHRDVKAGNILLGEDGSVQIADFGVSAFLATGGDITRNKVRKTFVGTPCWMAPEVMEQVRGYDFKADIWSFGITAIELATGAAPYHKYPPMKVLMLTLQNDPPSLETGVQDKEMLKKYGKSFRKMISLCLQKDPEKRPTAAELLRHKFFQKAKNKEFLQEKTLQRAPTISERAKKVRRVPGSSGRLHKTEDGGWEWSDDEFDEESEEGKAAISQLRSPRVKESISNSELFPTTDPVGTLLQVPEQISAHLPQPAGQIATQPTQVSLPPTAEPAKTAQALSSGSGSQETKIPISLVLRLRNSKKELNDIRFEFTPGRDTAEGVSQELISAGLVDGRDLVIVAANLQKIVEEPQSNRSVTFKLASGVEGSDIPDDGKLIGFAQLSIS

Mitogen-activated protein kinase kinase kinase 12 (DLK/MAP3K12) (Homo sapiens), sequence (Q12852 whole entry, looked up): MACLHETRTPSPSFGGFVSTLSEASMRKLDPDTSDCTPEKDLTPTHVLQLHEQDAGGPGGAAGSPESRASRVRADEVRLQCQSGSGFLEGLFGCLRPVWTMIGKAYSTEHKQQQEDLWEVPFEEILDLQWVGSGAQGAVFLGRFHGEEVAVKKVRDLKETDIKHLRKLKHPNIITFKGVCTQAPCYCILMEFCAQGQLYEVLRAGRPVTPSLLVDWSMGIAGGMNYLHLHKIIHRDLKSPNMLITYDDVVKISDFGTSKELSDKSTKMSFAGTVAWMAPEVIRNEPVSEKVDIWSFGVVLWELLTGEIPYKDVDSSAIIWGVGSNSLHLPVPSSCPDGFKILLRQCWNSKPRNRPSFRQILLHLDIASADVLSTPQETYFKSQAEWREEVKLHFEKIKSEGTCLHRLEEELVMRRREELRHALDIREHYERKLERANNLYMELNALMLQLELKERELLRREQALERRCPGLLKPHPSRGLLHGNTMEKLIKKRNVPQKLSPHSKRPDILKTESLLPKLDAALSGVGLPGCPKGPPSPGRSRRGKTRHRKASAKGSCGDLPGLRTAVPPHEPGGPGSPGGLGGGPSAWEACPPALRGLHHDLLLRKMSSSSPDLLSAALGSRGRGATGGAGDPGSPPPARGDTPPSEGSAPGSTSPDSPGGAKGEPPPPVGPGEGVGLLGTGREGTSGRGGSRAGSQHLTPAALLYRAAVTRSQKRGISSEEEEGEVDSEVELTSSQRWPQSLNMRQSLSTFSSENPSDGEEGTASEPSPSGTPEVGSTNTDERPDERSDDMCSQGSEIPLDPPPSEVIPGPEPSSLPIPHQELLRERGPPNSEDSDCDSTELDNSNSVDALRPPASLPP
Serine/threonine-protein kinase PRP4 homolog (PRPF4B) (Homo sapiens), sequence (Q13523 whole entry, looked up): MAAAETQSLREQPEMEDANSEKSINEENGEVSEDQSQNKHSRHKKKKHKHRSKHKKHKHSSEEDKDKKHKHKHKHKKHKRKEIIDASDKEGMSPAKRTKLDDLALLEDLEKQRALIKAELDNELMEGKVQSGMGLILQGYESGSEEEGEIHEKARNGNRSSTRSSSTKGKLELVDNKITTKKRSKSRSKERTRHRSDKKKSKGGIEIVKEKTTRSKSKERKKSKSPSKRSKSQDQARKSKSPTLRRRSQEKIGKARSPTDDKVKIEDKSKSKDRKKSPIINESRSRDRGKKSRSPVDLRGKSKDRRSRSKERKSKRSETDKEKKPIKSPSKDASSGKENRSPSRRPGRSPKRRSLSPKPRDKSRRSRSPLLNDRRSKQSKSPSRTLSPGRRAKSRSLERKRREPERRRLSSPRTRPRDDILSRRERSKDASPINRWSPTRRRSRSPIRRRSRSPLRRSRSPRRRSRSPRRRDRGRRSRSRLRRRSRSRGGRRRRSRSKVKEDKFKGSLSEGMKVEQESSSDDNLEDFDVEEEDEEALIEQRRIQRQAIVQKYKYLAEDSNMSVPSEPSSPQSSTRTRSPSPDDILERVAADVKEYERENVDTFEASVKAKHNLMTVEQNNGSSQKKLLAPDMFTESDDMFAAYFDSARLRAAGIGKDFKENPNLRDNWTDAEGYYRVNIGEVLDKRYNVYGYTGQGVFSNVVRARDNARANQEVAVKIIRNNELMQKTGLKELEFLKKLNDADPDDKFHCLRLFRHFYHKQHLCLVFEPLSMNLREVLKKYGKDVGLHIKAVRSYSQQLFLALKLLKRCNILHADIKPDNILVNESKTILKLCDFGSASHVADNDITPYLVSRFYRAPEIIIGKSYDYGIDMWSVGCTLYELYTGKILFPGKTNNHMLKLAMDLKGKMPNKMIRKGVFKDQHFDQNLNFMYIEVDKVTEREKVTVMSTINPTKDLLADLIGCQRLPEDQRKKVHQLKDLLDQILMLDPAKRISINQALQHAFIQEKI
Mitogen-activated protein kinase kinase kinase 7 (TAK1/MAP3K7) (Homo sapiens), sequence (O43318 whole entry, looked up): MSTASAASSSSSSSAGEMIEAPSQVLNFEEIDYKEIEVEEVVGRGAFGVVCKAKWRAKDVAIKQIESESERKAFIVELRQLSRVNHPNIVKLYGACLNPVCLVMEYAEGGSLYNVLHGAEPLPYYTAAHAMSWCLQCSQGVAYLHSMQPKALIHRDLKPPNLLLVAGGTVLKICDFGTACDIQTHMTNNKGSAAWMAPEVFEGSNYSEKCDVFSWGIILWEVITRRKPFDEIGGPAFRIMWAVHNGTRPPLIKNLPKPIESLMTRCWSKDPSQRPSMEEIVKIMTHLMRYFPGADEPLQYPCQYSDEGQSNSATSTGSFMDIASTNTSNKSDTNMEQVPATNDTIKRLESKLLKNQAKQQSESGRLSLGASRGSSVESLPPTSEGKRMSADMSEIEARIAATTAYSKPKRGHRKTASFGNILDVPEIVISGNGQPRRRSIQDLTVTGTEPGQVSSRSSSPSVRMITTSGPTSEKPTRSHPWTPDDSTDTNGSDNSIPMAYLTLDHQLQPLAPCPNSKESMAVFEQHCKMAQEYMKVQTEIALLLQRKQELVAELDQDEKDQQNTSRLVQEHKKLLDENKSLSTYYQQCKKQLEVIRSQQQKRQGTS

IC50 [1]: > 20 µM
IC50 [2]: > 20 µM
IC50 [3]: > 20 µM
IC50 [4]: > 20 µM
Structure (SMILES): Cc1cn(CCN2CCN(c3ccccc3-c3cc(C#N)cc(C(=O)NCCCN4CCCC4)c3)CC2)c2ccccc12
